From ChEMBL document CHEMBL2157895, “Selective Dual Inhibitors of the Cancer-Related Deubiquitylating Proteases USP7 and USP47” (ACS Med Chem Lett, 2012)
Activity calls are given as the source filed them.

Assays:
[1] = Inhibition of 20s proteasome
[2] = molecular target: T1, Ubiquitin carboxyl-terminal hydrolase 5 (Homo sapiens) (UniProt P45974); experiment: Inhibition of USP5 by Ub-CHOP reporter assay
T1 sequence (whole entry): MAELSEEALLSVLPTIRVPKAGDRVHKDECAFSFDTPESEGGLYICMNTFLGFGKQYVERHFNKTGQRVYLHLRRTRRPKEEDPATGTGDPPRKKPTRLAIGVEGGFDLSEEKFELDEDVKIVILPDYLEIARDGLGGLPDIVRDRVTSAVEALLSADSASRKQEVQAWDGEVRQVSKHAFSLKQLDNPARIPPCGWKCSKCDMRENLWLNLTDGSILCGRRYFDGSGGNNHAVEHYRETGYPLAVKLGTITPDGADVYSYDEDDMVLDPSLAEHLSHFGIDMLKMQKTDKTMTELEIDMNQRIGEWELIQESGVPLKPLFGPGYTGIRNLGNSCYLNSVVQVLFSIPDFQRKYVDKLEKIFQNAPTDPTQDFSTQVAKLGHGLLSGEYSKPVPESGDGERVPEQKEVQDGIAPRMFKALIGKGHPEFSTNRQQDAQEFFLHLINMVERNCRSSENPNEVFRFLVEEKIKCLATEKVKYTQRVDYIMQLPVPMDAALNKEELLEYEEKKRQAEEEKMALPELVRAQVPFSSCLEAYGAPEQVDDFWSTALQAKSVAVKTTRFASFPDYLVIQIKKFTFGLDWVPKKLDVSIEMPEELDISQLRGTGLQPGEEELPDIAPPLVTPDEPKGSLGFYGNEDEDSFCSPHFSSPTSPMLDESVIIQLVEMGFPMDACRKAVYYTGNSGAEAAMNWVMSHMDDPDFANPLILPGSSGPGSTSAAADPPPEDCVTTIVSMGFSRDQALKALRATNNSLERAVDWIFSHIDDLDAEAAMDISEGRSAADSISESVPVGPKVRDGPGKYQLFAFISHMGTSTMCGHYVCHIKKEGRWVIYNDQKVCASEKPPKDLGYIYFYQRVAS

[3] = molecular target: T2, Ubiquitin carboxyl-terminal hydrolase 21 (Homo sapiens) (UniProt Q9UK80); experiment: Inhibition of HIs6-tagged USP21 by Ub-CHOP reporter assay
T2 sequence (whole entry): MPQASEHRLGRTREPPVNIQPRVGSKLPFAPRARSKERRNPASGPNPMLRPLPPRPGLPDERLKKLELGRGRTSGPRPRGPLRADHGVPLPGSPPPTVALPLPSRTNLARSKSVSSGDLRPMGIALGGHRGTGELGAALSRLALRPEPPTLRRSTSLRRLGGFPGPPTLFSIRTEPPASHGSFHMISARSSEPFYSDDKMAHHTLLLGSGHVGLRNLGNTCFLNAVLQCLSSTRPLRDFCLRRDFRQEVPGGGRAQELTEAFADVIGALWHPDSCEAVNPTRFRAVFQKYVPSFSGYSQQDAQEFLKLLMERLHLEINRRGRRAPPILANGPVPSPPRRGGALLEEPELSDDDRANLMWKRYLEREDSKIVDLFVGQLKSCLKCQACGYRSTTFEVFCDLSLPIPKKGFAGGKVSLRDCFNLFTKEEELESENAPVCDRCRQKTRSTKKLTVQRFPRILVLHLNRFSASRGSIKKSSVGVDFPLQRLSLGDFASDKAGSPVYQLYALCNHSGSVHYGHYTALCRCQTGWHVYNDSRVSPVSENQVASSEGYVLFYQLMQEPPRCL

[4] = molecular target: T3, Ubiquitin carboxyl-terminal hydrolase 8 (Homo sapiens) (UniProt P40818); experiment: Inhibition of USP8 by Ub-CHOP reporter assay
T3 sequence (whole entry): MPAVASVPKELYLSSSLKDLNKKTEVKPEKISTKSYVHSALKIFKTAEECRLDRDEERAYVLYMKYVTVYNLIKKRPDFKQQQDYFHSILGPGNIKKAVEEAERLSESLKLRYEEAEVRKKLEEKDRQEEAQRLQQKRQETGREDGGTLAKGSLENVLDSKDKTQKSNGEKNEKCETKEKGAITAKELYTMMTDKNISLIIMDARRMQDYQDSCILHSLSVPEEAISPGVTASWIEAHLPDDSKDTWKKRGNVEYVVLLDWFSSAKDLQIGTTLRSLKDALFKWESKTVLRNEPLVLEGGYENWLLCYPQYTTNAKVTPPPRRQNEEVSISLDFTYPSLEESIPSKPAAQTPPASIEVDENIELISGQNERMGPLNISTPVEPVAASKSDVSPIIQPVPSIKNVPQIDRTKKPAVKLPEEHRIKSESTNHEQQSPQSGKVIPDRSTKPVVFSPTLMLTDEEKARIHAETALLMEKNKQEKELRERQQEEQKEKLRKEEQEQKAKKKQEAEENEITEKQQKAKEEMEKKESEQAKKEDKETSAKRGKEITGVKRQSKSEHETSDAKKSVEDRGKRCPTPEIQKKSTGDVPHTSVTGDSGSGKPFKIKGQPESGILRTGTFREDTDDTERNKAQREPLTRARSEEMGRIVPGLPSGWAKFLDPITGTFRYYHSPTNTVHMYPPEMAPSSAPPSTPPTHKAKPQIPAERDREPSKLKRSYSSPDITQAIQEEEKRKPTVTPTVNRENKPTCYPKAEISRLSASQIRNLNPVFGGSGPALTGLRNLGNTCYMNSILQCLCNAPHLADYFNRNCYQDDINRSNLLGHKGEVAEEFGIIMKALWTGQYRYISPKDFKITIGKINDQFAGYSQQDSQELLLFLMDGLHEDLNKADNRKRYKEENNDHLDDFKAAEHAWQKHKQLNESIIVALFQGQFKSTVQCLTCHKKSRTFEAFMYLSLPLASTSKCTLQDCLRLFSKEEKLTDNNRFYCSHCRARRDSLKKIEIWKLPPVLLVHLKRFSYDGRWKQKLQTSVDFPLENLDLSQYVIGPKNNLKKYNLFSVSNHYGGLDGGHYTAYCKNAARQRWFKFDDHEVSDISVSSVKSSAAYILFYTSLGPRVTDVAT

Measured: inhibition

CS(=O)(=O)c1ccc(NC(=O)c2cc(C#N)c(Sc3c(Cl)cncc3Cl)s2)cc1
inactive: all assays above
